Experimental data from US10428080B2, “TBK/IKK inhibitor compounds and uses thereof” (Merck Patent GmbH, priority 2015, dated 2019).
Structures can show the parent of a compound that is named as a salt.

Columns and labels:
IKKε = target: T1, IKKε (Homo sapiens, UniProt Q14164); experiment: IKKe Biochemical Assay; conditions: read-out: IKKε IC50
T1 sequence (Q14164 1-716): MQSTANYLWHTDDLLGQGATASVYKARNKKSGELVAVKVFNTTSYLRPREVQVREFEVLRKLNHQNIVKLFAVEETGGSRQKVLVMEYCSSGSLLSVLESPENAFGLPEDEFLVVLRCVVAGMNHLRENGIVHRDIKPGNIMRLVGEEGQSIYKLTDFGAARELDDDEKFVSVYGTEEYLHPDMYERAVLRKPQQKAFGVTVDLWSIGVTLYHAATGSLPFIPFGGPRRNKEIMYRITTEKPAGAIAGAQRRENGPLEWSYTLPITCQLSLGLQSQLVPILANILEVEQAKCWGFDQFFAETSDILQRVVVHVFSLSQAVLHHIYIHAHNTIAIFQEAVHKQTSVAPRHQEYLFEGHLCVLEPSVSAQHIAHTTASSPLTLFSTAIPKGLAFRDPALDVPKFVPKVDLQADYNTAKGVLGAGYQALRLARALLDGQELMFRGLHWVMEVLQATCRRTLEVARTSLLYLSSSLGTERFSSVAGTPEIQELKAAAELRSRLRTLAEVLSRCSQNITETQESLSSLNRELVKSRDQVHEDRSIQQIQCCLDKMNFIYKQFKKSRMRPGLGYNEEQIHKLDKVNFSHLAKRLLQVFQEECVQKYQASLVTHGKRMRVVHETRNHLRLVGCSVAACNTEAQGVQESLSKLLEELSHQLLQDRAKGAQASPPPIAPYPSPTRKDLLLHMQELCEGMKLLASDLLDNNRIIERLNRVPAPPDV
How it was run: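 Activity was measured as mobility-shift separation of phosphorylated from unphosphorylated substrate on a LabChip EZ Reader. Compound was titrated from 30 uM final in 10 points, 1:4 steps, with 1% DMSO, and enzyme plus substrate reacted 90 min at 25° C before stop buffer. Control wells held 10 uM staurosporine.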

TBK1 = target: T2, TBK1 (Homo sapiens, UniProt Q9UHD2); experiment: TBK Biochemical Assay; conditions: read-out: TBK1 IC50
T2 sequence (Q9UHD2 1-729): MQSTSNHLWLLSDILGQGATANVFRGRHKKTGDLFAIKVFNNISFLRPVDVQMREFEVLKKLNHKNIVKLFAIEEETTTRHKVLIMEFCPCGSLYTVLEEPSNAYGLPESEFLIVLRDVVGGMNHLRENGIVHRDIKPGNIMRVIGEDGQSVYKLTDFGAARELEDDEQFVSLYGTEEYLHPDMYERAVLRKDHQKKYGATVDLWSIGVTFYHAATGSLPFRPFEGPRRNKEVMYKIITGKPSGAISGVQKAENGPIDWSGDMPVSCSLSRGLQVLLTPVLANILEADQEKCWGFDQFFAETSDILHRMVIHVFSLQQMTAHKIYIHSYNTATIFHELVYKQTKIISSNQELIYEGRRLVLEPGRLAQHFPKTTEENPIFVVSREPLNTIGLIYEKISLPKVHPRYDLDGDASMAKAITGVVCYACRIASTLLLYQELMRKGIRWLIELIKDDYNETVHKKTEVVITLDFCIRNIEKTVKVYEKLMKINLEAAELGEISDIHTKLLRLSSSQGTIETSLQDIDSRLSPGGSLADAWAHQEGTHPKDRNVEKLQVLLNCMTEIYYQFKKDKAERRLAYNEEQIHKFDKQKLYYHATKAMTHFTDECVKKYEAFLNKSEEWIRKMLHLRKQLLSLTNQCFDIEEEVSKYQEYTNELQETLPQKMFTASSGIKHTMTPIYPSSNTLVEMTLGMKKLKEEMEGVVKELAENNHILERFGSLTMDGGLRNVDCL
How it was run: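 Caliper LabChip mobility-shift readout of substrate and product after 90 min of TBK1 reaction at 25° C and stop-buffer addition. Compounds tested in 1:4 serial dilution over 10 points from 30 uM final at 1% DMSO; staurosporine 10 uM final defines full inhibition.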

[1] = system: phosphorylation of the IRF-3 protein in MDA-MB-468 cells; experiment: pIRF3 immunocytochemistry cell based assay; conditions: Homo sapiens; MDA-MB-468 cells, Poly(I:C) stimulation; read-out: pIRF3 IC50
How it was run: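 After 2 h stimulation with Poly(I:C) (10 ug/ml), following 1 h compound pre-treatment (10-point, 3-fold dilution, top 10 uM), MDA-MB-468 cells were fixed and stained with anti-pIRF3 antibody. pIRF3 fluorescence was normalized to PI staining or cell count on an Acumen cytometer. IC50 curves were derived from this.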

Row | IC50 (IKKε) [nM] | IC50 (TBK1) [nM] | IC50 [1] [nM] | SMILES
1 | < 100 | < 100 | < 100 | COc1cc(C(=O)N2C[C@H]3C[C@@H](O)C[C@H]3C2)ccc1-c1cc2nccc(-c3ccc(OC4CCOCC4)c(C#N)c3)c2o1 [Compound 32, 5-{2-[4-((3aR,5R,6aS)-5-Hydroxy-hexahydro-cyclopenta[c]pyrrole-2-carbonyl)-2-methoxy-phenyl]-furo[3,2-b]pyridin-7-yl}-2-(tetrahydro-pyran-4-yloxy)-benzonitrile]
2 | < 100 | < 100 | 100 to 1000 | COc1cc(C(=O)NCC(C)(C)N(C)C)ccc1-c1cc2nccc(-c3ccc(NC4CCOCC4)c(C#N)c3)c2o1 [Compound 499, 4-{7-[3-Cyano-4-(tetrahydro-pyran-4-ylamino)-phenyl]-furo[3,2-b]pyridin-2-yl}-N-(2-dimethylamino-2-methyl-propyl)-3-methoxy-benzamide]
3 | < 100 | < 100 | 100 to 1000 | COc1cc(C(=O)N2CC[C@@H](F)C2)ccc1-c1cc2nccc(-c3ccc(OC4CCOCC4)c(C#N)c3)c2o1 [Compound 17, 5-{2-[4-((R)-3-Fluoro-pyrrolidine-1-carbonyl)-2-methoxy-phenyl]-furo[3,2-b]pyridin-7-yl}-2-(tetrahydro-pyran-4-yloxy)-benzonitrile]
4 | < 100 | < 100 | < 100 | COc1cc(C(=O)N(C)C)ccc1-c1cc2nccc(-c3ccc(OC4CCOC[C@@H]4F)c(C#N)c3)c2o1 (mixture of isomers) [Compound 42, 4-{7-[3-Cyano-4-((S)-3-fluoro-tetrahydro-pyran-4-yloxy)-phenyl]-furo[3,2-b]pyridin-2-yl}-3-methoxy-N,N-dimethyl-benzamide]
5 | 100 to 1000 | 100 to 1000 | 1000 to 5000 | COc1cc(-c2cc3nccc(-c4ccc(NC5CCOCC5)c(C#N)c4)c3o2)cnc1C(=O)N(C)C [Compound 394, 5-(7-[3-cyano-4-[(oxan-4-yl)amino]phenyl]furo[3,2-b]pyridin-2-yl)-3-methoxy-N,N-dimethylpyridine-2-carboxamide]
6 | < 100 | < 100 | < 100 | COc1cc(C(=O)NC(C)(C)CCN(C)C)ccc1-c1cc2nccc(-c3ccc(NC4CCOCC4)c(C#N)c3)c2o1 [Compound 514, 4-{7-[3-Cyano-4-(tetrahydro-pyran-4-ylamino)-phenyl]-furo[3,2-b]pyridin-2-yl}-N-(3-dimethylamino-1,1-dimethyl-propyl)-3-methoxy-benzamide]
7 | < 100 | < 100 | 100 to 1000 | COc1cc(C(=O)N(C)C)ccc1-c1cc2nccc(-c3cnc(NC4CCOCC4)c(C#N)c3)c2o1 [Compound 324, 4-(7-(5-cyano-6-(tetrahydro-2H-pyran-4-ylamino)pyridin-3-yl)furo[3,2-b]pyridin-2-yl)-3-methoxy-N,N-dimethylbenzamide]
8 | < 100 | < 100 | < 100 | COc1cc(C(=O)N2CC[C@H](N(C)C)C2)cnc1-c1cc2nccc(-c3ccc(N4CC[C@H](F)C4)c(C#N)c3)c2o1 [Compound 447, 5-{2-[5-((S)-3-Dimethylamino-pyrrolidine-1-carbonyl)-3-methoxy-pyridin-2-yl]-furo[3,2-b]pyridin-7-yl}-2-((S)-3-fluoro-pyrrolidin-1-yl)-benzonitrile]
9 | < 100 | < 100 | < 100 | COc1cc(C(=O)N(C)C)cnc1-c1cc2nccc(-c3ccc(NC4C5COCC54)c(C#N)c3)c2o1 (stereo not drawn) [Compound 436, 6-[7-[3-cyano-4-([3-oxabicyclo[3.1.0]hexan-6-yl]amino)phenyl]furo[3,2-b]pyridin-2-yl]-5-methoxy-N,N-dimethylpyridine-3-carboxamide]
10 | < 100 | < 100 | 1000 to 5000 | CN(C)C(=O)c1ccc(-c2cc3nccc(-c4ccc(O[C@@H]5CCCOC5)c(C#N)c4)c3o2)cc1 [Compound 156, 4-(7-{3-Cyano-4-[(R)-(tetrahydro-pyran-3-yl)oxy]-phenyl}-furo[3,2-b]pyridin-2-yl)-N,N-dimethyl-benzamide]
11 | < 100 | < 100 | < 100 | COc1cc(C(=O)N2CC3CCC2CN3C)cnc1-c1cc2nccc(-c3ccc(OC4CCOCC4)c(C#N)c3)c2o1 (stereo not drawn) [Compound 406, 5-[2-[3-methoxy-5-(([5-methyl-2,5-diazabicyclo[2.2.2]octan-2-yl]carbonyl)pyridin-2-yl]furo[3,2-b]pyridin-7-yl]-2-(oxan-4-yloxy)benzonitrile hydrochloride]
12 | < 100 | < 100 | < 100 | COc1cc(C(=O)N(C)C)ccc1-c1cc2nccc(-c3ccc(OC4CN(C)C4)c(C#N)c3)c2o1 [Compound 484, 4-{7-[3-Cyano-4-(1-methyl-azetidin-3-yloxy)-phenyl]-furo[3,2-b]pyridin-2-yl}-3-methoxy-N,N-dimethyl-benzamide]
13 | < 100 | < 100 | < 100 | COc1cc(C(=O)N(C)C)ccc1-c1cc2nccc(-c3ccc(OC4CCOCC4)c(C#N)n3)c2o1 [Compound 31, 4-{7-[6-Cyano-5-(tetrahydro-pyran-4-yloxy)-pyridin-2-yl]-furo[3,2-b]pyridin-2-yl}-3-methoxy-N,N-dimethyl-benzamide]
14 | < 100 | < 100 | 100 to 1000 | COc1cc(C(=O)NC2(CN(C)C)CCC2)ccc1-c1cc2nccc(-c3ccc(OC4CCOCC4)c(C#N)c3)c2o1 [Compound 368, 4-[7-[3-cyano-4-(oxan-4-yloxy)phenyl]furo[3,2-b]pyridin-2-yl]-N-[1-[(dimethylamino)methyl]cyclobutyl]-3-methoxybenzamide]
15 | < 100 | < 100 | 100 to 1000 | COc1cc(C(=O)N2CC3CCC(C2)O3)cnc1-c1cc2nccc(-c3ccc(OC4CCOCC4)c(C#N)c3)c2o1 [Compound 411, 5-[2-[3-methoxy-5-([8-oxa-3-azabicyclo[3.2.1]octan-3-yl]carbonyl)pyridin-2-yl]furo[3,2-b]pyridin-7-yl]-2-(oxan-4-yloxy)benzonitrile hydrochloride]
16 | 100 to 1000 | 100 to 1000 | 1000 to 5000 | CN(C)C(=O)c1ccc(-c2cc3nccc(-c4ccc(N5CC[C@H](N(C)C)C5)c(C#N)c4)c3o2)cc1 [Compound 173, 4-{7-[3-Cyano-4-((S)-3-dimethylamino-pyrrolidin-1-yl)-phenyl]-furo[3,2-b]pyridin-2-yl}-N,N-dimethyl-benzamide]

Row | SMILES | IC50 (IKKε) [nM] | IC50 (TBK1) [nM] | IC50 [1] [nM]
17 | CN(C)C(=O)c1ccc(-c2cc3nccc(-c4ccc(OC5CC(CO)(CCl)C5)c(C#N)c4)c3o2)cc1 (stereo not drawn) [Compound 168, 4-{7-[4-(3-Chloromethyl-3-hydroxymethyl-cyclobutoxy)-3-cyano-phenyl]-furo[3,2-b]pyridin-2-yl}-N,N-dimethyl-benzamide] | 100 to 1000 | 100 to 1000 | 100 to 1000
18 | COc1cc(C(=O)N2C3CCCC2CC3)ccc1-c1cc2nccc(-c3ccc(NC4CCOCC4)c(C#N)c3)c2o1 [Compound 519] | < 100 | < 100 | 100 to 1000
